Source: PMC4692482, “Structure and Stability of the Dimeric Triosephosphate Isomerase from the Thermophilic Archaeon Thermoplasma acidophilum” (PLoS ONE, 2015)

Biological target: T1, TaTPI (Thermoplasma acidophilum, UniProt Q9HLB6)
T1 construct: gene tpiA; full length, 216 residues, C-terminal His6-tag (pET-28a(+)), expressed in E. coli Rosetta 2(DE3)pLysS; 24,671 Da monomer; homodimer
Test: X-ray crystallography ([…] A)
Type: binding
Conditions: 20 mM G3P incubated with apo protein 4 h at 4 C; pH 8.5; active site (Lys9, His89, Glu137); substrate analogue

T1 sequence (Q9HLB6 whole entry): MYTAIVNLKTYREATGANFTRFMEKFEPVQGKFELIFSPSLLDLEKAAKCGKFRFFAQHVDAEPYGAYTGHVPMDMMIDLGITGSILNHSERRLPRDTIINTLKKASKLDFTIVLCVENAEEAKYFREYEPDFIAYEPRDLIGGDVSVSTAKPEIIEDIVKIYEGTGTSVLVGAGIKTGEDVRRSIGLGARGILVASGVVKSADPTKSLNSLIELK

## O=P(O)(O)OC[C@H](O)CO [G3P, glycerol-3-phosphate]
  X-ray crystallography (2.17 A): G3P is well positioned at the active site of TaTPI with functionally conserved residues
